Measurements published in PMC13372681, “A natural depsipeptide antibiotic binds the E-site of the bacterial ribosome” (Nature, 2026).
Converted amounts (≈) assume the structure as drawn. Read-outs that look alike come from different tables or passages of the source. Where a SMILES comes first, the peptide text is derived from it. Bridges are numbered along the chain shown (N, C = ends). [ ]: non-standard residue; d: D form. dOrn = NCCC[C@@H](N)C(=O)O

Legend:
[1] = tested on: E. coli ribosome; test: Translocation assay; type: biochemical; conditions: 250 μM negamycin; pre-translocation complex, toeprint read-out
Procedure: In vitro translocation assay was carried out using the model mRNA MFK (Supplementary Table 9) as described. The mRNA was prepared by in vitro transcription of a PCR product amplified using the primers MF_F1, MF_F2, and MF_R (Supplementary Table 8). A 4.5 μl reaction containing 1 μM E. coli ribosomes, 0.5 μM mRNA, 1 μM tRNAi^Met, 0.5 μM radiolabelled NV1 primer (Supplementary Table 8), 2 U μl^−1 RiboLock RNase Inhibitor (Thermo), and antibiotic tested (50 μM MKM or 250 μM negamycin) in pure system buffer (PSB; 9 mM Mg(CH3COO)2, 5 mM K3PO4, 95 mM potassium glutamate, 5 mM NH4Cl, 0.5 mM CaCl2, 1 mM spermidine, 8 mM putrescine, 1 mM dithiothreitol, pH 7.3)[90] was incubated for 20 min at 37 °C. Then N-acetyl-Phe-N-tRNA^Phe (ref. [91]), in which amino acid is attached to the A3′ hydroxyl of the tRNA via an amide bond, was added to the final concentration of 2 μM followed by 10 min incubation at 37 °C. After addition of the E. coli EF-G and GTP to the final concentrations of 0.2 μM and 533 μM, respectively and incubation for 5 min at 30 °C, 1 µl of the mixture of AMV reverse transcriptase (Roche) and dNTPs (2.1 U/µl AMV reverse transcriptase and 2 mM dNTPs in PSB) was added, and the reactions were incubated for another 5 min at 30 °C. […]

[2] = tested on: E. coli C1508; conditions: broth microdilution, MDR clinical isolate
[3] = tested on: M. tuberculosis H37Ra; conditions: Middlebrook 7H9 + 10% OADC + 0.05% Tween-80
[4] = tested on: Bacillus subtilis 168
[5] = tested on: S. aureus USA 300; conditions: USA 300
[6] = tested on: S. aureus ATCC 29213
[7] = tested on: E. coli ΔtolC ΔbamB; conditions: broth microdilution
[8] = tested on: M. bovis BCG Pasteur ATCC 35734; conditions: Middlebrook 7H9 + 10% OADC + 0.05% Tween-80

Row | SMILES | inhibition of EF-G-dependent translocation [1] | MIC ([2]; Ca+ MHB Medium) | MIC ([2]; MOPS Minimal Medium) | MIC ([2]; RPMI Medium) | MIC [3] | MIC [4] | MIC [5] | MIC [6] | MIC ([7]; Ca+ MHB Medium) | MIC ([7]; MOPS Minimal Medium) | MIC ([7]; RPMI Medium) | MIC [8]
1 | CN(CC(=O)O)NC(=O)C[C@H](N)C[C@@H](O)CN [negamycin] | notably inhibited |  |  |  |  |  |  |  |  |  |  | 
2 | C[C@@H](O)[C@@H]1NC(=O)[C@@H](CCCNC(=N)N)NC(=O)[C@@H](CCCNC(=N)N)NC(=O)[C@@H](CC(N)=O)NC(=O)[C@@H](NC(=O)[C@@H](Cc2ccccc2)NC(=O)[C@@H](CCCNC(=N)N)NC(=O)[C@H](N)CCCNC(=N)N)[C@@H](C)OC(=O)[C@H](Cc2c[nH]cn2)NC1=O [MKM-B] (H-[dR][dR][dF]T[dN][dR][dR]TH; ester 4-C) |  | 16 µg/mL (≈ 13.1 µM) | 4 µg/mL (≈ 3.26 µM) | 4 µg/mL (≈ 3.26 µM) | 0.25 µg/mL | 32 µg/mL (≈ 26.1 µM) | 64 µg/mL (≈ 52.2 µM) | 32 µg/mL (≈ 26.1 µM) | 4 µg/mL (≈ 3.26 µM) | 1 µg/mL (≈ 0.816 µM) | 1 µg/mL (≈ 0.816 µM) | 0.25 µg/mL
3 | C[C@@H](O)[C@@H]1NC(=O)[C@@H](CCCNC(=N)N)NC(=O)[C@@H](CCCNC(=N)N)NC(=O)[C@@H](CC(N)=O)NC(=O)[C@@H](NC(=O)[C@@H](Cc2ccccc2)NC(=O)[C@@H](CCCN)NC(=O)[C@@H](CCCNC(=N)N)NC(=O)[C@@H](N)CCCNC(=N)N)[C@@H](C)OC(=O)[C@H](Cc2c[nH]cn2)NC1=O [MKM-E] (H-R[dR][dOrn][dF]T[dN][dR][dR]TH; ester 5-C; N-terminus assumed) |  | 8 µg/mL (≈ 5.97 µM) | 1 µg/mL (≈ 0.747 µM) | 1 µg/mL (≈ 0.747 µM) | 1 µg/mL | 32 µg/mL (≈ 23.9 µM) | 16 µg/mL (≈ 11.9 µM) | 32 µg/mL (≈ 23.9 µM) | 2 µg/mL (≈ 1.49 µM) | 0.5 µg/mL (≈ 0.373 µM) | <0.5 µg/mL | 1 µg/mL
